Assay results as given in patent US11389423B2, “Pharmaceutical composition, excipient for the composition and use of the composition” (priority 2018, dated 2022).

Legend:
[1] = tested on: polychromatic erythrocytes; details: rats male and female, 20 mg/kg intraperitoneally
Experimental: To perform the micronucleus test (Schmid, 1976), different groups of rats (male and female; n=10) received three doses of CBD (500, 1000 and 2000 mg/kg) orally. The negative control group received placebo by gavage and the positive control was treated with cyclophosphamide monohydrate (20 mg/kg—Sigma-Aldrich) intraperitoneally. After 24 hours (cyclophosphamide) and 48 hours (CBD-SINT and vehicle) the end of treatments, the animals were euthanized by decapitation. The femurs were removed, the proximal epiphysis was removed to expose the medullary canal and, with the aid of a 13×4.5 mm needle and 3 mL NaCl solution (150 mM), the marrow was removed, washing the medullary canal with NaCl solution. The material was transferred to glass tubes and centrifuged at 1000 rpm/5 min. After centrifugation, the supernatant was discarded, and the deposit was resuspended with a 4% formaldehyde solution and slightly homogenized with the aid of a Pasteur pipette. A drop of this cell suspension was placed on a clean, dry slide, and then the smear was performed. The slides were dried at room temperature and, after 24 hours, stained with Leishman eosin-methylene blue and subjected to microscopic analysis. To determine the number of micronuclei, 2000 polychromatic erythrocytes were counted per animal (1000 in each slide) using an optical microscope, at 400× magnification. The analysis of the slides was blind and performed by a single evaluator.

[2] = tested on: DNA of male and female rats; details: rats male and female, 20 mg/kg intraperitoneally, 24 hours, positive control
Experimental: The negative control group received placebo by gavage and the positive control was treated with cyclophosphamide monohydrate (20 mg/kg—Sigma-Aldrich) intraperitoneally.

O=P1(N(CCCl)CCCl)NCCCO1 (stereo not shown) [cyclophosphamide, cyclophosphamide monohydrate, reference compound] was tested, and the “average number of MNPCE” value ([1]; 24 hours, positive control (C+)) was “significant increase”, the “ratio of polychromatic/normochromatic erythrocytes (PCE/NCE ratio)” value ([1]; positive control) was “significantly changed” and the “increase in the frequency of damage” value [2] was “approximately 100%”. For the same compound, the “increase in the index of damage” value [2] was “approximately 100%”.
